Test results taken from patent US12661361B2, “Resmetirom for reducing liver volume” (Madrigal Pharmaceuticals, Inc., priority 2021, dated 2026).

Legend:
Type in all cases: in vivo, human
[1] = test system: adults with biopsy-confirmed NASH (NAS≥4, F1-F3) and hepatic fat fraction ≥10%; experiment: 36-week Phase 2 serial MRI-PDFF and liver biopsy study; MRI-PDFF and liver volume (LV) assessment
Protocol: Hepatomegaly may cause symptoms (e.g., pain) in NASH patients, and is thought to be driven primarily by high liver fat content. […] The purpose of this study was to assess the relationship between liver triglycerides as measured by MRI-PDFF and liver volume (LV) in placebo and resmetirom-treated patients.
(§1) MRI-PDFF and liver volume (LV) were assessed in, (n=117), and a NASH-cirrhotic active resmetirom treatment arm of MAESTRO-NAFLD-1 (n=73), in patients who had at least baseline and one additional serial PDFF. LV was assessed using a validated artificial intelligence model for segmenting the liver on standard MR images.
LV at baseline was elevated in non-cirrhotic and cirrhotic NASH patients relative to literature values for healthy controls and was greater than predicted even after accounting for sex and body weight. PDFF correlated with LV at baseline in non-cirrhotic (r2=0.19, p<0.001) and more weakly in cirrhotic NASH (r2=0.079, p=0.01). Reduction in LV (CFB) correlated with reduction in PDFF in placebo (r2=0.25, p=0.001) and resmetirom (r2-0.38, p<0.0001) treated patients at 12 (and 36 (not shown)) weeks (see, e.g., FIG. 1).

[2] = test system: noninvasively identified NASH patients; experiment: MAESTRO-NAFLD-1 52 week Phase 3, 100 mg open label (OL) non-cirrhotic NASH arm
Protocol: MAESTRO-NASH NCT03900429 and MAESTRO-NAFLD-1 NCT04197479 are 52 week Phase 3 registrational double blind placebo controlled clinical trials to study the effect of resmetirom in more than 2,000 NASH patients. A goal of MAESTRO-NAFLD-1, a 1,200 patient “real life” NASH study is to identify non-invasive markers that correlate with patient response to resmetirom treatment. The 169 patient, 100 mg open label (OL) arm completed the 52 week study in July 2021.
Eligibility required at least 3 metabolic risk factors (Metabolic syndrome), fibroscan kilopascals (kPa) consistent with ≥F1 fibrosis stage, and MRI-PDFF≥8%. The primary and key secondary endpoints of MAESTRO-NAFLD-1 including safety, relative percent reduction of MRI-PDFF (week 16), LDL cholesterol (LDL-C) (week 24), apolipoprotein B and triglycerides, fibroscan and 52 week endpoints were analyzed in the OL arm.

[3] = test system: well-compensated NASH cirrhotic patients; experiment: MAESTRO-NAFLD-1 open label resmetirom arm in well-compensated NASH cirrhotic patients
Protocol: as §1
MAESTRO-NAFLD-1 is a 52-week >1200 patient Phase 3 randomized double blind placebo controlled NASH clinical trial to study safety and biomarker effects of resmetirom, a selective thyroid hormone receptor beta agonist, in NASH patients with F1-F4 fibrosis identified using non-invasive biomarkers and imaging (NCT04197479). A goal of this “real life” NASH study is to identify non-invasive markers that correlate with individual patient response to resmetirom treatment. The study includes an open label active resmetirom treatment arm in well-compensated NASH cirrhotic patients.
Eligibility required at least 3 metabolic risk factors (metabolic syndrome), and NASH cirrhosis diagnosed on liver biopsy or according to accepted criteria. The primary and key secondary end points of the cirrhotic arm include safety, relative percent reduction of MRI-PDFF (week 16), LDL cholesterol (LDL-C) (week 24), Apolipoprotein B and triglycerides, and markers of fibrosis. Patients received 80-100 mg daily dose of resmetirom for 52 weeks.
105 well-compensated NASH cirrhotic patients were enrolled in the open label arm, 2/3 confirmed by liver biopsy. Demographics include mean age 62.7 (9.0 (SD)), female 64%, BMI 35.4 (7.4), diabetes 70%, hypertension 77%, dyslipidemia >70%, mean ASCVD score 16.1%, hypothyroid 32.4%, 51% on statins. MRE kPa, 5.7 (2.1); fibroscan kPa, 24.6 (14.9), CAP, 318 (59) and mean MRI-PDFF, 8.1% (5). Stage of cirrhosis was inversely correlated with baseline PDFF. At week 52 resmetirom lowered fibroscan CAP (−42 units (p<0.0001) and kPa (−7.6 kPa, p=0.02).

[4] = cirrhotic NASH patients with PDFF≤5% at baseline, week 16

- bone mineral density (DEXA) ([2]; 52 weeks): unchanged
SMILES: CC(C)c1cc(Oc2c(Cl)cc(-n3nc(C#N)c(=O)[nH]c3=O)cc2Cl)n[nH]c1=O [resmetirom, 2-(3,5-dichloro-4-((5-isopropyl-6-oxo-1,6-dihydropyridazin-3-yl)oxy)phenyl)-3,5-dioxo-2,3,4,5-tetrahydro-1,2,4-triazine-6-carbonitrile]
- LV reduction ([1]; 12 weeks, p<0.0001 vs placebo): −18.6%
- liver fat reduction (MRI-PDFF) ([1]; 36-week Phase 2, compared with placebo, associated with NASH resolution on liver biopsy): statistically significant liver fat reduction
- LV reduction ([1]; 36 weeks, p<0.0001 vs placebo): −20.5%
- percentage of patients with ≥15% reduction in liver volume ([1]; Week 12, p<0.0001 vs placebo): 69.2%
- week 12 imaging response in patients who had NASH resolution and/or fibrosis reduction on biopsy at week 36 ([1]; all such resmetirom treated patients): PDFF reduction ≥30% and/or LV reduction of ≥15%
- ELF (inflammatory and fibrosis biomarker) ([2]; 100 mg OL arm): Significant reductions
- LV reduction relative to that predicted by % reduction in MRI-PDFF ([2]; 100 mg OL arm): 2-3 fold
- M30 (inflammatory and fibrosis biomarker) ([2]; 100 mg OL arm): Significant reductions
- adiponectin ([2]; 100 mg OL arm): increase
- reverse T3 (inflammatory and fibrosis biomarker) ([2]; 100 mg OL arm): Significant reductions
- LDL-C reduction ([2]; 100 mg OL arm, p<0.0001): −22%
- apolipoprotein-B reduction ([2]; 100 mg OL arm, p<0.0001): −24%
- triglycerides reduction ([2]; 100 mg OL arm, p<0.0001): −24%
- blood pressure (systolic, diastolic) reduction ([2]; 100 mg OL arm, p=0.02): ~2 mmHg
- patients with weight loss ≥5% ([2]; 100 mg OL arm, linked to resmetirom exposure (SHBG)): ~25%
- safety ([2]; 100 mg per day up to 52 weeks): No safety flags were identified
- liver volume (LV) reduction ([2]; 100 mg, week 52, p<0.0001): −23%
- fibroscan CAP change relative to baseline ([2]; week 52, p<0.0001): −39 (4.6)
- fibroscan VCTE change relative to baseline ([2]; week 52, p<0.0001): −1.87
- fibroscan VCTE percent change relative to baseline ([2]; week 52, p<0.0001): −20%
- MRE change relative to baseline ([2]; week 52, p=0.03): −0.34
- safety and tolerability ([3]; 80-100 mg daily up to 52 weeks): safe and well-tolerated
- fibroscan CAP change ([3]; 80-100 mg daily, week 52, p<0.0001): −42 units
- fibroscan kPa change ([3]; 80-100 mg daily, week 52, p=0.02): −7.6 kPa
- BP reduction ([3]; NASH cirrhotic arm): 4-5 mm
- LV mean % CFB [3, 4]: −16.3%
- PDFF mean % CFB [3, 4]: −2.5%
- ApoB reduction ([3]; independent of cirrhosis stage): 20%
- LDL-C reduction ([3]; independent of cirrhosis stage): 20%
- Lp (a) reduction ([3]; independent of cirrhosis stage): 30%
- triglycerides reduction ([3]; independent of cirrhosis stage): 21%
- GGT change ([3]; p=0.04): −27%
- PDFF lowered by ([3]; patients with baseline PDFF>5%, p<0.0057): 37%
- MRE lowered by ([3]; week 52): 0.68 kPa
- patients with MRE reduction of ≥15% ([3]; week 52): 34%
- patients with ≥15% reduction in LV ([3]; week 52, independent of baseline cirrhosis severity): 73%
